Experimental data published in patent US7396837B2, “Antitumoral analogs of lamellarins” (Pharma Mar, S.A.U., priority 2002, dated 2008).
Read-outs that look alike come from different tables or passages of the source.

Experiments:
LoVo-Dox = experiment: SRB colorimetric cell growth inhibition assay, LoVo-Dox (MDR); type: cell-based; conditions: Homo sapiens; for GI50: GI=growth inhibition, read-out: GI50 LOVO-DOX; for IC (TGI): read-out: TGI LOVO-DOX
Procedure, shortened: (§1)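 Continuous drug exposure of human cancer cells; SRB protein stain read-out; triplicate wells, mean ± SD; GI, TGI, LC computed.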

PANC-1 = experiment: SRB colorimetric cell growth inhibition assay, PANC-1; type: cell-based; conditions: Homo sapiens; for IC (TGI): read-out: TGI PANC-1; for GI50: GI=growth inhibition, read-out: GI50 PANC-1
Procedure, shortened: as §1

IGROV = experiment: SRB colorimetric cell growth inhibition assay, IGROV; type: cell-based
Procedure, shortened: as §1

IGROV-ET = experiment: SRB colorimetric cell growth inhibition assay, IGROV-ET (ET-743 resistant); type: cell-based; conditions: Homo sapiens; for GI50: GI=growth inhibition, read-out: GI50 IGROV-ET; for CC50: cell killing (cytotoxic effect); for IC (TGI): total growth inhibition (cytostatic effect), read-out: TGI IGROV-ET
Procedure, shortened: as §1

LoVo = experiment: SRB colorimetric cell growth inhibition assay, LoVo; type: cell-based; conditions: Homo sapiens; for GI50: GI=growth inhibition, read-out: GI50 LOVO; for IC (TGI): read-out: TGI LOVO
Procedure, shortened: as §1

K-562 = experiment: SRB colorimetric cell growth inhibition assay, K-562; type: cell-based; conditions: Homo sapiens; for GI50: GI=growth inhibition, read-out: GI50 K-562; for IC (TGI): read-out: TGI K-562
Procedure, shortened: as §1

HT-29 = experiment: SRB colorimetric cell growth inhibition assay, HT-29; type: cell-based; conditions: Homo sapiens; for GI50: GI=growth inhibition, read-out: GI50 HT-29; for IC (TGI): read-out: TGI HT-29
Procedure, shortened: as §1

SK-BR-3 = experiment: SRB colorimetric cell growth inhibition assay, SK-BR-3; type: cell-based; conditions: Homo sapiens; for CC50: cell killing (cytotoxic effect); for GI50: GI=growth inhibition, read-out: GI50 SK-BR-3; for IC (TGI): total growth inhibition (cytostatic effect), read-out: TGI SK-BR-3
Procedure, shortened: as §1

human topoisomerase I = molecular target: T1, human topoisomerase I (Homo sapiens, UniProt P11387); experiment: Topoisomerase I DNA relaxation assay (supercoiled plasmid DNA); type: biochemical; conditions: supercoiled plasmid DNA, each compound tested at 1 μM, agarose gel with ethidium bromide
T1 sequence (P11387 1-765): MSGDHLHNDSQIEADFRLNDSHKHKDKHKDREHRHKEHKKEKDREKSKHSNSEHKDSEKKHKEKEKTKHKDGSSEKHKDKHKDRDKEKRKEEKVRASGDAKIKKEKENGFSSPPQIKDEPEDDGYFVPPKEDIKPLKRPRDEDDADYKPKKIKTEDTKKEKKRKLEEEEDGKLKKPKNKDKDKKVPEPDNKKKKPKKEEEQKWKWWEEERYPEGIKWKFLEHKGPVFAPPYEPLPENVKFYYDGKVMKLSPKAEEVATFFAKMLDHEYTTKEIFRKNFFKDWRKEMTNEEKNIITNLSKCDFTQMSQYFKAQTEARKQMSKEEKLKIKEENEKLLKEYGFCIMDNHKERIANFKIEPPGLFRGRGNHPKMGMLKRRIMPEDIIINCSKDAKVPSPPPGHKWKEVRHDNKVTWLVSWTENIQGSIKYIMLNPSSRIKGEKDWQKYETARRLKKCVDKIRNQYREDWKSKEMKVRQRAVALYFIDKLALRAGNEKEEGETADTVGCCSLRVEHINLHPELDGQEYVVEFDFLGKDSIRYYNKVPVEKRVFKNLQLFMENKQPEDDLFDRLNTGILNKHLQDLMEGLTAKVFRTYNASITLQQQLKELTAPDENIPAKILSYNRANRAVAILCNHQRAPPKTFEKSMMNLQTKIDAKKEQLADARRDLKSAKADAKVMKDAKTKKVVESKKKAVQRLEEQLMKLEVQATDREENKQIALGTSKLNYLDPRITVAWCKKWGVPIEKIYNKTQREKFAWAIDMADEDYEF
Procedure, shortened: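 Test compounds (1 μM each) were present during topoisomerase I relaxation of supercoiled plasmid DNA. Relaxation was assessed on ethidium bromide-stained agarose gels.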

DU-145 = experiment: SRB colorimetric cell growth inhibition assay, DU-145; type: cell-based; conditions: Homo sapiens; for CC50: cell killing (cytotoxic effect); for GI50: GI=growth inhibition, read-out: GI50 DU-145; for IC (TGI): total growth inhibition (cytostatic effect), read-out: TGI DU-145
Procedure, shortened: as §1

A-549 = experiment: SRB colorimetric cell growth inhibition assay, A-549; type: cell-based; conditions: Homo sapiens; for GI50: GI=growth inhibition, read-out: GI50 A-549; for IC (TGI): read-out: TGI A-549
Procedure, shortened: as §1

SK-MEL-28 = experiment: SRB colorimetric cell growth inhibition assay, SK-MEL-28; type: cell-based; conditions: Homo sapiens; for GI50: GI=growth inhibition, read-out: GI50 MEL-28; for CC50: cell killing (cytotoxic effect); for IC (TGI): total growth inhibition (cytostatic effect), read-out: TGI MEL-28
Procedure, shortened: as §1

LNCaP = experiment: SRB colorimetric cell growth inhibition assay, LNCaP; type: cell-based; conditions: Homo sapiens, LNCaP; for GI50: GI=growth inhibition, read-out: GI50 LN-caP; for CC50: cell killing (cytotoxic effect); for IC (TGI): total growth inhibition (cytostatic effect), read-out: TGI LN-caP
Procedure, shortened: as §1

## COc1cc(-c2c3n(c4c(=O)oc5cc(OC(=O)[C@@H](N)Cc6c[nH]c7ccccc67)c(OC)cc5c24)CCc2cc(OC(=O)[C@@H](N)Cc4c[nH]c5ccccc45)c(OC)cc2-3)ccc1OC(=O)[C@@H](N)Cc1c[nH]c2ccccc12 [Compound 24]
LoVo-Dox; LOVO-DOX
  GI50: 891 nM
LoVo-Dox; LOVO-DOX, cell killing (cytotoxic effect), read-out: LC50 LOVO-DOX
  CC50: 7130 nM
LoVo-Dox; LOVO-DOX, total growth inhibition (cytostatic effect)
  IC (TGI): 3660 nM
PANC-1; PANC-1, PANC-1, cell killing (cytotoxic effect), read-out: LC50 PANC-1
  CC50: 7130 nM
PANC-1; PANC-1, PANC-1, total growth inhibition (cytostatic effect)
  IC (TGI): 6230 nM
PANC-1; PANC-1
  GI50: 1340 nM
IGROV; Homo sapiens, IGROV; cell killing (cytotoxic effect); read-out: LC50 IGROV
  CC50: 7130 nM
IGROV; Homo sapiens; IGROV; GI=growth inhibition; read-out: GI50 IGROV
  GI50: 1230 nM
IGROV; Homo sapiens; IGROV; total growth inhibition (cytostatic effect); read-out: TGI IGROV
  IC (TGI): 4820 nM
IGROV-ET; IGROV-ET
  GI50: 1310 nM
  IC (TGI): 7130 nM
IGROV-ET; IGROV-ET, read-out: LC50 IGROV-ET
  CC50: 7130 nM
LoVo; LoVo, cell killing (cytotoxic effect), read-out: LC50 LOVO
  CC50: 4280 nM
LoVo; LOVO
  GI50: 749 nM
LoVo; LOVO, total growth inhibition (cytostatic effect)
  IC (TGI): 1780 nM
K-562; K562, K-562
  GI50: 680 nM
K-562; K562, K-562, cell killing (cytotoxic effect), read-out: LC50 K-562
  CC50: 5300 nM
K-562; K562, K-562, total growth inhibition (cytostatic effect)
  IC (TGI): 1910 nM
HT-29; HT-29, HT-29, cell killing (cytotoxic effect), read-out: LC50 HT-29
  CC50: 7130 nM
HT-29; HT-29
  GI50: 7130 nM
HT-29; HT-29, total growth inhibition (cytostatic effect)
  IC (TGI): 7130 nM
SK-BR-3; SK-BR-3, SK-BR-3, read-out: LC50 SK-BR-3
  CC50: 5580 nM
SK-BR-3; SK-BR-3
  GI50: 653 nM
  IC (TGI): 1930 nM
Human topoisomerase I
  stimulation of DNA cleavage by topoisomerase I / inhibition of topoisomerase I (nicked DNA band) in DNA relaxation assay: inhibit topoisomerase I
DU-145; DU-145, DU-145, read-out: LC50 DU-145
  CC50: 7130 nM
DU-145; DU-145
  GI50: 913 nM
  IC (TGI): 2940 nM
A-549; A549, A-549
  GI50: 1550 nM
A-549; A549, A-549, cell killing (cytotoxic effect), read-out: LC50 A-549
  CC50: 7130 nM
A-549; A549, A-549, total growth inhibition (cytostatic effect)
  IC (TGI): 3370 nM
SK-MEL-28; SK-MEL-28, MEL-28
  GI50: 1380 nM
  IC (TGI): 2810 nM
SK-MEL-28; SK-MEL-28, MEL-28, read-out: LC50 MEL-28
  CC50: 5740 nM
LNCaP; LN-caP
  GI50: 934 nM
  IC (TGI): 1910 nM
LNCaP; LN-caP, read-out: LC50 LN-caP
  CC50: 3890 nM

## COc1cc(-c2c3n(c4c(=O)oc5cc(OC(=O)[C@H](N)C(C)C)c(OC)cc5c24)CCc2cc(OC(=O)[C@H](N)C(C)C)c(OC)cc2-3)ccc1OC(=O)[C@H](N)C(C)C [Compound 32]
LoVo-Dox; LOVO-DOX
  GI50: 671 nM
LoVo-Dox; LOVO-DOX, TGI=total growth inhibition (cytostatic effect)
  IC (TGI): 2420 nM
LoVo-Dox; read-out: LC50 LOVO-DOX, LOVO-DOX, LC=cell killing (cytotoxic effect)
  CC50: 8250 nM
PANC-1; PANC-1, PANC-1
  GI50: 316 nM
PANC-1; PANC-1, PANC-1, TGI=total growth inhibition (cytostatic effect)
  IC (TGI): 1380 nM
PANC-1; PANC-1, read-out: LC50 PANC-1, PANC-1, LC=cell killing (cytotoxic effect)
  CC50: 8760 nM
IGROV; Homo sapiens, IGROV, read-out: LC50 IGROV, IGROV; cell killing (cytotoxic effect)
  CC50: 6120 nM
IGROV; Homo sapiens, IGROV; GI=growth inhibition; read-out: GI50 IGROV
  GI50: 561 nM
IGROV; Homo sapiens, IGROV; total growth inhibition (cytostatic effect); read-out: TGI IGROV
  IC (TGI): 2060 nM
IGROV-ET; IGROV-ET
  GI50: 666 nM
  IC (TGI): 3010 nM
IGROV-ET; read-out: LC50 IGROV-ET, IGROV-ET
  CC50: 8760 nM
LoVo; LoVo, read-out: LC50 LOVO, LOVO, LC=cell killing (cytotoxic effect)
  CC50: 6310 nM
LoVo; LoVo
  GI50: 392 nM
LoVo; LoVo, TGI=total growth inhibition (cytostatic effect)
  IC (TGI): 1650 nM
K-562; K562, K-562
  GI50: 673 nM
K-562; K562, K-562, TGI=total growth inhibition (cytostatic effect)
  IC (TGI): 2430 nM
K-562; K562, read-out: LC50 K-562, K-562, LC=cell killing (cytotoxic effect)
  CC50: 8310 nM
HT-29; HT-29, HT-29
  GI50: 2660 nM
HT-29; HT-29, HT-29, TGI=total growth inhibition (cytostatic effect)
  IC (TGI): 5300 nM
HT-29; HT-29, read-out: LC50 HT-29, HT-29, LC=cell killing (cytotoxic effect)
  CC50: 8760 nM
SK-BR-3; SK-BR-3, SK-BR-3
  GI50: 1300 nM
  IC (TGI): 3190 nM
SK-BR-3; SK-BR-3, read-out: LC50 SK-BR-3, SK-BR-3
  CC50: 7820 nM
Human topoisomerase I
  stimulation of DNA cleavage by topoisomerase I / inhibition of topoisomerase I (nicked DNA band) in DNA relaxation assay: No effect
DU-145; DU-145, DU-145
  GI50: 111 nM
  IC (TGI): 309 nM
DU-145; DU-145, read-out: LC50 DU-145, DU-145
  CC50: 857 nM
A-549; A549, A-549
  GI50: 1530 nM
A-549; A549, A-549, TGI=total growth inhibition (cytostatic effect)
  IC (TGI): 3340 nM
A-549; A549, read-out: LC50 A-549, A-549, LC=cell killing (cytotoxic effect)
  CC50: 7330 nM
SK-MEL-28; SK-MEL-28, MEL-28
  GI50: 1350 nM
  IC (TGI): 2870 nM
SK-MEL-28; SK-MEL-28, read-out: LC50 MEL-28, MEL-28
  CC50: 6130 nM
LNCaP; LN-caP
  GI50: 429 nM
  IC (TGI): 1670 nM
LNCaP; read-out: LC50 LN-caP, LN-caP
  CC50: 5080 nM
